Measurements published in ChEMBL document CHEMBL2439971, “Design, synthesis and antiproliferative evaluation of fluorenone analogs with DNA topoisomerase I inhibitory properties” (Bioorg Med Chem, 2013).
Active and inactive are the calls of the source. The rule behind the calls is not given here.

Experiments:
[1] = Cytotoxicity against human NCI60 cells; assay type: functional
[2] = target: DNA topoisomerase 1 (Homo sapiens) (UniProt P11387); experiment: Inhibition of recombinant human DNA topoisomerase 1-mediated relaxation of supercoiled pHOT DNA at 25 to 50 uM after 45 mins by agarose gel electrophoresis
DNA topoisomerase 1 (Homo sapiens), sequence (P11387 whole entry): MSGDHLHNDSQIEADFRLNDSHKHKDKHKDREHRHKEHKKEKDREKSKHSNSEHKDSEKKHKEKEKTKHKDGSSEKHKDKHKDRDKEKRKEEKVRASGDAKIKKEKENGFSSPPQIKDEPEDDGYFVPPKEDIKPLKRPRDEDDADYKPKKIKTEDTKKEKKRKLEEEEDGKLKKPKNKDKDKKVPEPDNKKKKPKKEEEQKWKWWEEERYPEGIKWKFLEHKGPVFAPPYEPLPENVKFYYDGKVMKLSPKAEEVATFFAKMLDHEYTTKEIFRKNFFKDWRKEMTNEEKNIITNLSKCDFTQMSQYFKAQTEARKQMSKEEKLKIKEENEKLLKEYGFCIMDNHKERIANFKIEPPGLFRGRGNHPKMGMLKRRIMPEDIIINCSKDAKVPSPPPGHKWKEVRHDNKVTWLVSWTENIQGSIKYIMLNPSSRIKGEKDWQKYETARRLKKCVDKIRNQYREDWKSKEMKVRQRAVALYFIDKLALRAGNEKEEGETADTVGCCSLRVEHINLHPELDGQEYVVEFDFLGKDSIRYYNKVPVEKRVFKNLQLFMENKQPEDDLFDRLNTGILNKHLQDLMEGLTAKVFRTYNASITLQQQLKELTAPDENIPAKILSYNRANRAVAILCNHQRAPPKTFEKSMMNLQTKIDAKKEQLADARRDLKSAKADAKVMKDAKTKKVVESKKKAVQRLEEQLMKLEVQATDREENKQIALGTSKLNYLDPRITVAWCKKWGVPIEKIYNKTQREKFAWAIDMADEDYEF

ACHN = experiment: Cytotoxicity against human ACHN cells at 10 uM after 48 hrs by sulforhodamine B assay relative to control; assay type: functional
A549 = experiment: Cytotoxicity against human A549 cells at 10 uM after 48 hrs by sulforhodamine B assay relative to control; assay type: functional
NCI-H226 = experiment: Cytotoxicity against human NCI-H226 cells at 10 uM after 48 hrs by sulforhodamine B assay relative to control; assay type: functional
SK-MEL-28 = experiment: Cytotoxicity against human SK-MEL-28 cells at 10 uM after 48 hrs by sulforhodamine B assay relative to control; assay type: functional
OVCAR-5 = experiment: Cytotoxicity against human OVCAR5 cells at 10 uM after 48 hrs by sulforhodamine B assay relative to control; assay type: functional
UACC-62 = experiment: Cytotoxicity against human UACC62 cells at 10 uM after 48 hrs by sulforhodamine B assay relative to control; assay type: functional
COLO 205 = experiment: Cytotoxicity against human COLO205 cells at 10 uM after 48 hrs by sulforhodamine B assay relative to control; assay type: functional
NCI-H23 = experiment: Cytotoxicity against human NCI-H23 cells at 10 uM after 48 hrs by sulforhodamine B assay relative to control; assay type: functional
LOX IMVI = experiment: Cytotoxicity against human LOXIMVI cells at 10 uM after 48 hrs by sulforhodamine B assay relative to control; assay type: functional
MDA-MB-468 = experiment: Cytotoxicity against human MDA-MB-468 cells at 10 uM after 48 hrs by sulforhodamine B assay relative to control; assay type: functional
IGROV-1 = experiment: Cytotoxicity against human IGROV1 cells at 10 uM after 48 hrs by sulforhodamine B assay relative to control; assay type: functional
RPMI-8226 = experiment: Cytotoxicity against human RPMI8226 cells at 10 uM after 48 hrs by sulforhodamine B assay relative to control; assay type: functional
NCI/ADR-RES = experiment: Cytotoxicity against human NCI/ADR-RES cells at 10 uM after 48 hrs by sulforhodamine B assay relative to control; assay type: functional
[3] = Cytotoxicity against human Hs 578T cells at 10 uM after 48 hrs by sulforhodamine B assay relative to control; assay type: functional
Malme-3M = experiment: Cytotoxicity against human MALME-3M cells at 10 uM after 48 hrs by sulforhodamine B assay relative to control; assay type: functional
HT-29 = experiment: Cytotoxicity against human HT-29 cells at 10 uM after 48 hrs by sulforhodamine B assay relative to control; assay type: functional
SF-268 = experiment: Cytotoxicity against human SF268 cells at 10 uM after 48 hrs by sulforhodamine B assay relative to control; assay type: functional
SR = experiment: Cytotoxicity against human SR cells at 10 uM after 48 hrs by sulforhodamine B assay relative to control; assay type: functional
HCT-116 = experiment: Cytotoxicity against human HCT116 cells at 10 uM after 48 hrs by sulforhodamine B assay relative to control; assay type: functional
SF-295 = experiment: Cytotoxicity against human SF295 cells at 10 uM after 48 hrs by sulforhodamine B assay relative to control; assay type: functional
HL-60(TB) = experiment: Cytotoxicity against human HL-60(TB) cells at 10 uM after 48 hrs by sulforhodamine B assay relative to control; assay type: functional
[4] = Cytotoxicity against human EKVX cells at 10 uM after 48 hrs by sulforhodamine B assay relative to control; assay type: functional
786-0 = experiment: Cytotoxicity against human 786-0 cells at 10 uM after 48 hrs by sulforhodamine B assay relative to control; assay type: functional
CAKI-1 = experiment: Cytotoxicity against human CAKI-1 cells at 10 uM after 48 hrs by sulforhodamine B assay relative to control; assay type: functional
NCI-H522 = experiment: Cytotoxicity against human NCI-H522 cells at 10 uM after 48 hrs by sulforhodamine B assay relative to control; assay type: functional
OVCAR-4 = experiment: Cytotoxicity against human OVCAR4 cells at 10 uM after 48 hrs by sulforhodamine B assay relative to control; assay type: functional
CCRF-CEM = experiment: Cytotoxicity against human CCRF-CEM cells at 10 uM after 48 hrs by sulforhodamine B assay relative to control; assay type: functional
M14 = experiment: Cytotoxicity against human M14 cells at 10 uM after 48 hrs by sulforhodamine B assay relative to control; assay type: functional
TK-10 = experiment: Cytotoxicity against human TK10 cells at 10 uM after 48 hrs by sulforhodamine B assay relative to control; assay type: functional
PC-3 [5] = experiment: Cytotoxicity against human PC3 cells after 48 hrs by sulforhodamine B assay; assay type: functional, cell-based; conditions: PC-3, 48 h
U-251 = experiment: Cytotoxicity against human U251 cells at 10 uM after 48 hrs by sulforhodamine B assay relative to control; assay type: functional
UO-31 = experiment: Cytotoxicity against human UO31 cells at 10 uM after 48 hrs by sulforhodamine B assay relative to control; assay type: functional
SF-539 = experiment: Cytotoxicity against human SF539 cells at 10 uM after 48 hrs by sulforhodamine B assay relative to control; assay type: functional
KM12 = experiment: Cytotoxicity against human KM12 cells at 10 uM after 48 hrs by sulforhodamine B assay relative to control; assay type: functional
NCI-H460 = experiment: Cytotoxicity against human NCI-H460 cells at 10 uM after 48 hrs by sulforhodamine B assay relative to control; assay type: functional
SNB-75 = experiment: Cytotoxicity against human SNB75 cells at 10 uM after 48 hrs by sulforhodamine B assay relative to control; assay type: functional
HOP-62 = experiment: Cytotoxicity against human HOP62 cells at 10 uM after 48 hrs by sulforhodamine B assay relative to control; assay type: functional
T47D = experiment: Cytotoxicity against human T47D cells at 10 uM after 48 hrs by sulforhodamine B assay relative to control; assay type: functional
SN12C = experiment: Cytotoxicity against human SN12C cells at 10 uM after 48 hrs by sulforhodamine B assay relative to control; assay type: functional
MCF7 = experiment: Cytotoxicity against human MCF7 cells at 10 uM after 48 hrs by sulforhodamine B assay relative to control; assay type: functional
PC-3 [6] = experiment: Cytotoxicity against human PC3 cells at 10 uM after 48 hrs by sulforhodamine B assay relative to control; assay type: functional
K562 = experiment: Cytotoxicity against human K562 cells at 10 uM after 48 hrs by sulforhodamine B assay relative to control; assay type: functional
OVCAR-3 = experiment: Cytotoxicity against human OVCAR3 cells at 10 uM after 48 hrs by sulforhodamine B assay relative to control; assay type: functional
SK-MEL-5 = experiment: Cytotoxicity against human SK-MEL-5 cells at 10 uM after 48 hrs by sulforhodamine B assay relative to control; assay type: functional
HCC 2998 = experiment: Cytotoxicity against human HCC2998 cells at 10 uM after 48 hrs by sulforhodamine B assay relative to control; assay type: functional
BT-549 = experiment: Cytotoxicity against human BT549 cells at 10 uM after 48 hrs by sulforhodamine B assay relative to control; assay type: functional
HOP-92 = experiment: Cytotoxicity against human HOP92 cells at 10 uM after 48 hrs by sulforhodamine B assay relative to control; assay type: functional
SK-MEL-2 = experiment: Cytotoxicity against human SK-MEL-2 cells at 10 uM after 48 hrs by sulforhodamine B assay relative to control; assay type: functional
OVCAR-8 = experiment: Cytotoxicity against human OVCAR8 cells at 10 uM after 48 hrs by sulforhodamine B assay relative to control; assay type: functional
RXF 393 = experiment: Cytotoxicity against human RXF393 cells at 10 uM after 48 hrs by sulforhodamine B assay relative to control; assay type: functional
SNB-19 = experiment: Cytotoxicity against human SNB19 cells at 10 uM after 48 hrs by sulforhodamine B assay relative to control; assay type: functional
SW-620 = experiment: Cytotoxicity against human SW620 cells at 10 uM after 48 hrs by sulforhodamine B assay relative to control; assay type: functional
MDA-MB-231 = experiment: Cytotoxicity against human MDA-MB-231 cells at 10 uM after 48 hrs by sulforhodamine B assay relative to control; assay type: functional
NCI-H322M = experiment: Cytotoxicity against human NCI-H322M cells at 10 uM after 48 hrs by sulforhodamine B assay relative to control; assay type: functional
DU-145 = experiment: Cytotoxicity against human DU145 cells at 10 uM after 48 hrs by sulforhodamine B assay relative to control; assay type: functional
MDA-MB-435 = experiment: Cytotoxicity against human MDA-MB-435 cells at 10 uM after 48 hrs by sulforhodamine B assay relative to control; assay type: functional
UACC-257 = experiment: Cytotoxicity against human UACC257 cells at 10 uM after 48 hrs by sulforhodamine B assay relative to control; assay type: functional
MOLT-4 = experiment: Cytotoxicity against human MOLT4 cells at 10 uM after 48 hrs by sulforhodamine B assay relative to control; assay type: functional
Homo sapiens = organism: Homo sapiens; experiment: Inhibition of telomerase (unknown origin) at 10 uM TRAP assay
HCT-15 = experiment: Cytotoxicity against human HCT15 cells at 10 uM after 48 hrs by sulforhodamine B assay relative to control; assay type: functional

CCN(CC)CCC(=O)Nc1ccc2c(c1)C(=O)c1cc(NC(=O)CCN(CC)CC)ccc1C2=O
GI50 [1]: 2.57 µM

CN(C)CC(=O)Nc1ccc2c(c1)C(=O)c1cc(NC(=O)CN(C)C)ccc1C2=O
GI50 [1]: 2.09 µM | inhibition [2]: Active

CCNCCC(=O)Nc1ccc2c(c1)C(=O)c1cc(NC(=O)CCNCC)ccc1-2
Activity (ACHN): 120.72% | Activity (A549): 94.72% | Activity (NCI-H226): 105.54% | Activity (SK-MEL-28): 105.31% | Activity (OVCAR-5): 110.42% | Activity (UACC-62): 100.48% | Activity (COLO 205): 110.13% | Activity (NCI-H23): 98.77% | Activity (LOX IMVI): 97.55% | Activity (MDA-MB-468): 96.83% | Activity (IGROV-1): 108.06% | Activity (RPMI-8226): 104.16% | Activity (NCI/ADR-RES): 96.39% | Activity [3]: 98.9% | Activity (Malme-3M): 101.61% | Activity (HT-29): 104.19% | Activity (SF-268): 121.13% | Activity (SR): 101.47% | Activity (HCT-116): 109.77% | Activity (SF-295): 88.95% | Activity (HL-60(TB)): 104.46% | Activity [4]: 102.12% | Activity (786-0): 102.08% | Activity (CAKI-1): 96.47% | Activity (NCI-H522): 103.53% | Activity (OVCAR-4): 105.01% | Activity (CCRF-CEM): 101.3% | Activity (M14): 113.99% | Activity (TK-10): 103.34% | IC50 (PC-3 [5]): > 30 µM | Activity (U-251): 92.86% | Activity (UO-31): 102.42% | Activity (SF-539): 116.97% | Activity (KM12): 114.64% | Activity (NCI-H460): 109.14% | Activity (SNB-75): 92.33% | Activity (HOP-62): 105.98% | Activity (T47D): 108.97% | Activity (SN12C): 94.35% | Activity (MCF7): 87.69% | Activity (PC-3 [6]): 101.42% | Activity (K562): 92.16% | Activity (OVCAR-3): 120.25% | Activity (SK-MEL-5): 102.17% | Activity (HCC 2998): 104.87% | Activity (BT-549): 119.2% | Activity (HOP-92): 87.24% | Activity (SK-MEL-2): 126.91% | Activity (OVCAR-8): 103.63% | Activity (RXF 393): 105.09% | Activity (SNB-19): 100.42% | Activity (SW-620): 101.71% | Activity (MDA-MB-231): 105.71% | Activity (NCI-H322M): 100.96% | Activity (DU-145): 120.33% | Activity (MDA-MB-435): 97.63% | Activity (UACC-257): 111.63% | Activity (MOLT-4): 98.76% | inhibition (Homo sapiens): inactive | Activity (HCT-15): 108.19%

O=C(CCN1CCCC1)Nc1ccc2c(c1)C(=O)c1cc(NC(=O)CCN3CCCC3)ccc1C2=O
GI50 [1]: 3.89 µM
